How the values were obtained:
[1] = solubility in water (statement in Example 3); type: physicochemical; settings: stated to explain the reaction speed in the madder root extraction mixture
Experimental: After analysis of the reaction mixture it follows that within 60 minutes all LP is converted into LUC. After the reaction vessel is opened, LUC is converted into NOR, a step which takes 6 hours. When oxygen is present LUC can not be detected, which means that its conversion is much faster than in the present experimental situation. […] Therefore, it is in general difficult for the enzyme to oxidize the solid LUC to NOR. However, when the reaction is performed under oxygen LUC cannot crystalize, because it is immediately oxidized to NOR.

[2] = stated as known, no test described; cited from earlier work

solubility in water [1] | SMILES | mutagenicity [2]
not soluble in water | O=C1c2ccccc2C(=O)c2c1cc(O)c(CO)c2O [LUC, lucidin] | mutagenic
insoluble in water | O=Cc1c(O)cc2c(c1O)C(=O)c1ccccc1C2=O [NOR, nordamnacanthal] | 

Reference: US6596036B2, “Method for the production of a dye preparation based on madder root” (Coöperatie Rubia U.A., priority 2000, dated 2003)
